Assay results taken from patent US7964620B2, “Imidazole derivatives” (Hoffmann-La Roche Inc., priority 2003, dated 2011).

Molecular target: T1, human mGlu 5a receptor (Homo sapiens, UniProt P41594)
T1 construct: expressed in transfected cells; host or cells: EBNA cells (transient transfection); cell membrane homogenates
Experiment: [3H]MPEP competition binding on membranes of EBNA cells transiently transfected with human mGlu 5a receptor
Conditions: competition with 2 nM [3H]MPEP, 1 h at 4° C., Ki=IC50/[1+L/Kd]
Procedure: For binding experiments, cDNA encoding human mGlu 5a receptor was transiently trans-fected into EBNA cells using a procedure described by Schlaeger and Christensen [Cyto-technology 15:1-13 (1998)]. Cell membrane homogenates were stored at −80° C. until the day of assay where upon they were thawed and resuspended and polytronized in 15 mM Tris-HCl, 120 mM NaCl, 100 mM KCl, 25 mM CaCl2, 25 mM MgCl2 binding buffer at pH 7.4 to a final assay concentration of 20 μg protein/well.
Saturation isotherms were determined by addition of twelve [^3H]MPEP concentrations (0.04-100 nM) to these membranes (in a total volume of 200 μl) for 1 h at 4° C. Competition experiments were performed with a fixed concentration of [^3H]MPEP (2 nM) and IC50 values of test compounds evaluated using 11 concentrations (0.3-10,000 nM). Incubations were performed for 1 h at 4° C.
At the end of the incubation, membranes were filtered onto unifilter (96-well white microplate with bonded GF/C filter preincubated 1 h in 0.1% PEI in wash buffer, Packard BioScience, Meriden, Conn.) with a Filtermate 96 harvester (Packard BioScience) and washed 3 times with cold 50 mM Tris-HCl, pH 7.4 buffer. Nonspecific binding was measured in the presence of 10 μM MPEP. The radioactivity on the filter was counted (3 min) on a Packard Top-count microplate scintillation counter with quenching correction after addition of 45 μl of microscint 40 (Can berra Packard S. A., Zürich, Switzerland) and shaking for 20 min. For functional assays, [Ca^2+]i measurements were performed as described previously by Porter et al. [Br. J. Pharmacol. 128:13-20 (1999)] on recombinant human mGlu 5a receptors in HEK-293 cells. The cells were dye loaded using Fluo 4-AM (obtainable by FLUKA, 0.2 μM final concentration). [Ca^2+]i measurements were performed using a fluorometric imaging plate reader (FLIPR, Molecular Devices Corporation, La Jolla, Calif., USA). Antagonist evaluation was performed following a 5 min preincubation with the test compounds followed by the addition of a submaximal addition of agonist.
The inhibition (antagonists) curves were fitted with a four parameter logistic equation giving IC50, and Hill coefficient using an iterative non linear curve fitting software (Xcel fit). For binding experiments the Ki values of the compounds tested are given. The Ki value is defined by the following formula: Ki=IC50/[1+L/Kd] in which the IC50 values are those concentrations of the compounds tested which cause 50% inhibition of the competing radioligand ([^3H]MPEP). L is the concentration of radioligand used in the binding experiment and the Kd value of the radioligand is empirically determined for each batch of membranes prepared.

T1 sequence (P41594 21-1180 isoform P41594-2 limits assumed): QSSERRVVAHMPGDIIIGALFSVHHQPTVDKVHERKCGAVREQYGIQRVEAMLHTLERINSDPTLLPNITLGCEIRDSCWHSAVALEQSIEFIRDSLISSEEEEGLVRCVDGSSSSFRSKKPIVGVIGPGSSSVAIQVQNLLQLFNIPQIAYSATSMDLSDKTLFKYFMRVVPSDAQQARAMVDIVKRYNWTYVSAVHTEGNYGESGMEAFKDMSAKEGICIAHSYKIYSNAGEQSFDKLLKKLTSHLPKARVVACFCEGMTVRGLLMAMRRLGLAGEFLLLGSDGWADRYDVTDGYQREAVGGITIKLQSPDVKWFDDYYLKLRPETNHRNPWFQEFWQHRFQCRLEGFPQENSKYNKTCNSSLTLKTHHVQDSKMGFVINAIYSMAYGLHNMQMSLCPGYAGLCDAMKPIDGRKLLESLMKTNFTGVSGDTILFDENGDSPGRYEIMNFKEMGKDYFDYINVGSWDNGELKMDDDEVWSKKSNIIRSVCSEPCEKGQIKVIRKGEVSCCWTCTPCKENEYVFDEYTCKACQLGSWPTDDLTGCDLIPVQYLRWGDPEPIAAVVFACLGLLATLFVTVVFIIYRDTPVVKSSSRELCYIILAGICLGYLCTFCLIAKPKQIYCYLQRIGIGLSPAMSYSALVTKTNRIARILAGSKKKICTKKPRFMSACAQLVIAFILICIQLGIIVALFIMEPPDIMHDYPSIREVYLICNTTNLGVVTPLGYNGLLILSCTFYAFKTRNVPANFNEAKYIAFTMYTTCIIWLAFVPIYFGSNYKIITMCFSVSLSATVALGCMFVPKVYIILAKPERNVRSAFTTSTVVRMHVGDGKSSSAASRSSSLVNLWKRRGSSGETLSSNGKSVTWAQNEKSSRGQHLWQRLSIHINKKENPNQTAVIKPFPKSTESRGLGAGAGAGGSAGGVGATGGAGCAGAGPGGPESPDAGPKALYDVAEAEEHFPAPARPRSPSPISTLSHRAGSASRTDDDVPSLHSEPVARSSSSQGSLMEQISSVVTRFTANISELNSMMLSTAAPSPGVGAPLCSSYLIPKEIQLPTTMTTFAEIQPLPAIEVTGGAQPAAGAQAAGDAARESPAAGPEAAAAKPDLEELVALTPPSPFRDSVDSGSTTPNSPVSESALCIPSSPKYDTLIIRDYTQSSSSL

Ki [nM]	SMILES
40	Cc1nc(C#Cc2cccc(Cl)c2)cn1Cc1ccccn1 [Example 3, 2-[4-(3-Chloro-phenylethynyl)-2-methyl-imidazol-1-ylmethyl]-pyridine]
94	Cc1nc(C#Cc2cccc(C#N)c2)cn1Cc1cncc(Cl)c1 [Example 18, 3-[1-(5-Chloro-pyridin-3-ylmethyl)-2-methyl-1H-imidazol-4-ylethynyl]-benzonitrile]
93	Cc1cc(C#Cc2cn(Cc3cccc(C)n3)c(C)n2)ccn1 [Example 4, 4-[1-(6-Methyl-pyridin-2-ylmethyl)-2-methyl-1H-imidazol-4-ylethynyl]-2-methyl-pyridine]

The next lines start with the molecule.

SMILES	Ki [nM]
Cc1cc(C#Cc2cn(C(C)c3ccccc3)c(C)n2)ccn1 (racemic) [Example 23, rac-2-Methyl-4-[2-methyl-1-(1-phenyl-ethyl)-1H-imidazol-4-ylethynyl]-pyridine]	77
Cc1cc(C#Cc2cn(CCc3ccccc3)c(C)n2)ccn1 [Example 29, 2-Methyl-4-(2-methyl-1-phenethyl-1H-imidazol-4-ylethynyl)-pyridine]	33
